In PubChem BioAssay (NCI):
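Tested at 5 concentrations; 48 h exposure; 96-well plates; endpoints linearly interpolated, else capped at highest concentration. TGI: concentration producing complete growth inhibition.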

Legend:
Test in all cases: DTP human tumour cell line panel, 48 h
SNB-19 CNS = system: SNB-19 CNS
NCI-H460 lung = system: NCI-H460 lung
HT29 colon = system: HT29 colon
MDA-N = system: MDA-N
SW-620 colon = system: SW-620 colon
SK-MEL-5 melanoma = system: SK-MEL-5 melanoma
MDA-MB-435 = system: MDA-MB-435
SF-268 CNS = system: SF-268 CNS
SF-539 CNS = system: SF-539 CNS
UACC-257 melanoma = system: UACC-257 melanoma
A498 renal = system: A498 renal
NCI-H522 lung = system: NCI-H522 lung
OVCAR-8 ovarian = system: OVCAR-8 ovarian
EKVX NSCLC = system: EKVX NSCLC
RXF 393 renal = system: RXF 393 renal
SN12C renal = system: SN12C renal
RPMI-8226 leukemia = system: RPMI-8226 leukemia
HCT-116 colon = system: HCT-116 colon
NCI-H23 lung = system: NCI-H23 lung

| Structure (SMILES) | TGI (SNB-19 CNS) [µM] | TGI (NCI-H460 lung) [µM] | TGI (HT29 colon) [µM] | TGI (MDA-N) [µM] | TGI (SW-620 colon) [µM] | TGI (SK-MEL-5 melanoma) [µM] | TGI (MDA-MB-435) [µM] | TGI (SF-268 CNS) [µM] | TGI (SF-539 CNS) [µM] | TGI (UACC-257 melanoma) [µM] | TGI (A498 renal) [µM] | TGI (NCI-H522 lung) [µM] | TGI (OVCAR-8 ovarian) [µM] | TGI (EKVX NSCLC) [µM] | TGI (RXF 393 renal) [µM] | TGI (SN12C renal) [µM] | TGI (RPMI-8226 leukemia) [µM] | TGI (HCT-116 colon) [µM] | TGI (NCI-H23 lung) [µM] |
| --- | --- | --- | --- | --- | --- | --- | --- | --- | --- | --- | --- | --- | --- | --- | --- | --- | --- | --- | --- |
| CCOC(=O)c1nc2ccccc2nc1Oc1cc(OC)cc(OC)c1 | > 100 | > 100 | > 100 | > 100 | > 100 | > 100 | > 100 | > 100 | > 100 | > 100 | > 100 | > 100 | > 100 | > 100 | > 100 | > 100 | > 100 | > 100 | – |
| CC(=O)c1ccc(Br)cc1NC1=CC(=O)c2ncccc2C1=O | 11.3 | – | 12.3 | 3.62 | – | 1.3 | 3.06 | 21.7 | 6.96 | 4.94 | 5.85 | 10.4 | 18.2 | 19.4 | 18.7 | 19.1 | 8.95 | 4.5 | 13 |
| Cc1cn([C@@H]2O[C@H](CO[Si](C)(C)C(C)(C)C)[C@]3(O[C@H]3C(=O)NO)[C@H]2O[Si](C)(C)C(C)(C)C)c(=O)[nH]c1=O | 3.18 | 3.15 | 2.92 | 3.01 | 4.28 | 3.58 | 4.38 | 2.97 | 2.83 | 6.92 | 3.33 | 3.12 | 3.53 | 3.59 | 3.34 | 3.08 | 2.84 | 2.85 | 3.66 |
| Clc1ccc(/C=C/c2nc(-c3ccccc3)cn3c2nc2ccccc23)cc1Cl | > 100 | > 100 | > 100 | > 100 | > 100 | > 100 | > 100 | > 100 | > 100 | > 100 | > 100 | – | – | > 100 | > 100 | > 100 | > 100 | > 100 | > 100 |
| C=C1c2nc3ccccc3n2C=C(c2ccc(OC)cc2)N1c1ccc(OCCN2CCCCC2)cc1 | > 100 | 14.8 | 43.3 | > 100 | 52.3 | > 58.5 | > 74.9 | > 100 | 81.2 | 10.8 | > 84.5 | > 100 | > 100 | > 100 | > 77 | > 100 | 18.1 | > 42.4 | > 61.4 |
| CC(CN1NC12CCCC2)N1NC12CCCC2 (configuration not stated) | > 100 | > 100 | > 100 | > 100 | > 100 | > 100 | > 100 | > 100 | > 100 | > 100 | > 100 | > 100 | > 100 | > 100 | > 100 | > 100 | > 100 | > 100 | > 100 |
| O=C1c2ccccc2-c2nnc3c(c21)Cc1ccccc1C3 | > 10 | > 10 | > 10 | > 10 | > 10 | > 10 | > 10 | > 10 | > 10 | – | > 10 | > 10 | > 10 | > 10 | > 10 | > 10 | > 10 | > 10 | > 10 |
| C=CCOC(=O)Cn1cnc2c(N)ncnc21 | > 100 | > 100 | > 100 | > 100 | > 100 | > 100 | > 100 | > 100 | > 100 | > 100 | > 100 | – | > 100 | > 100 | – | > 100 | > 100 | > 100 | > 100 |
| N=C(N)SCc1ccc2c(c1)S(=O)(=O)c1ccccc1O2 | > 100 | 53.1 | 33.8 | 77 | 53 | – | 34.3 | 93.1 | 55.7 | 35.2 | 35.1 | – | > 100 | 35.2 | 47.5 | > 100 | > 100 | 63.1 | 43.4 |
| CCCc1nnc2sc(COc3ccc(OCc4nn5c(CCC)nnc5s4)c(Cl)c3)nn12 | > 100 | 78.1 | 98.9 | 45.4 | > 100 | 21.2 | 59 | > 100 | > 100 | 51.1 | 74.5 | > 100 | > 100 | 48.1 | > 100 | > 100 | > 100 | > 100 | > 100 |
| CN(C)CCNc1ccc(NCC[N+](C)(C)Cc2ccc([N+](=O)[O-])cc2)c2c1C(=O)c1c(O)ccc(O)c1C2=O | > 100 | – | > 100 | 69 | > 100 | 47.5 | > 100 | > 100 | – | – | > 100 | – | > 100 | > 100 | – | > 100 | > 100 | > 100 | > 100 |
| COC(=O)C(=O)C(C(=O)C(=O)Nc1ccc(Cl)c(Cl)c1)c1nc2ccc(C(=O)c3ccccc3)cc2[nH]c1=O (configuration not stated) | > 100 | – | > 100 | > 100 | > 100 | > 100 | > 100 | > 100 | > 100 | > 100 | > 100 | > 100 | > 100 | > 100 | > 100 | > 100 | > 100 | > 100 | > 100 |
| Cc1ccc(S(=O)(=O)n2cc(/C=C/C#N)c(-c3cn(S(=O)(=O)c4ccc(C)cc4)cc3-c3cn(S(=O)(=O)c4ccc(C)cc4)cc3/C=C/C#N)c2)cc1 | > 100 | – | > 100 | > 100 | – | > 100 | > 100 | > 100 | – | > 100 | > 100 | > 100 | > 100 | > 100 | – | > 100 | > 100 | > 100 | > 100 |
